{"source": "patent US20230243822A1", "about": "“MOLECULAR DISEASE PROFILE AND USE THEREOF FOR MONITORING AND TREATING RHEUMATAOID ARTHRITIS” (JANSSEN BIOTECH, INC., priority 2020, published 2023)", "key": {"[1]": {"system": "14-analyte M-DP panel", "assay": "Pharmacodynamic M-DP score, 14-analyte panel (SomaLogic SOMAscan), clinical studies in RA", "assay_type": "in vivo, human", "excerpt": "(§1) Serum samples and data from eight interventional clinical studies with seven different active treatments for RA or placebo treatment were obtained and analyzed: sirukumab (anti-IL-6) and placebo treatments in SIRROUND-M (NCT01689532; Takeuchi T, et al. Arthritis Res Ther. 2018 Mar. 7; 20(1): 42), SIRROUND-D (NCT01604343; Takeuchi T, et al. Ann Rheum Dis. 2017 Dec.; 76(12): 2001-2008), and SIRROUND-T (NCT01606761; Aletaha D, et al. Lancet. 2017 Mar. 25; 389(10075): 1206-1217); sirukumab and adalimumab (anti-TNF-alpha) treatments in SIRROUND-H (NCT02019472; Taylor PC, et al. Ann Rheum Dis. 2018 May; 77(5): 658-666); golimumab (anti-TNF-alpha) treatment in GO-FURTHER (NCT00973479; Weinblatt ME, et al. Ann Rheum Dis. 2013 March; 72(3): 381-9); guselkumab (anti-IL-23p19), ustekinumab (anti-IL-12/IL-23p40), and placebo treatments in CNTO1275ARA2001 (NCT01645280; Cox JD, et al. […]); JNJ-40346527 (colony-stimulating factor-1 inhibitor) and placebo treatments in 40346527ARA2001 (NCT01597739; Genovese MC, et al. J Rheumatol. 2015 October; 42(10): 1752-60). Plasma samples were obtained from the RA-MAP TACERA study (Cope AP, et al. Nat Rev Rheumatol. 2018 January; 14(1): 53-60) before (baseline) and 6-months after initiation of conventional synthetic disease-modifying anti-rheumatic drugs (csDMARDs). Details of treatment dose groups, concomitant methotrexate use, and previous experience with csDMARDs and biologics are reported in Table 1. The studies were conducted in accordance with the Declaration of Helsinki. The study protocols were reviewed and approved by an independent ethics committee or institutional review board for each study center. Written informed consent was obtained from all patients before study entry. Additional study details and patient characteristics are available in the referenced publications for each study. For SIRROUND-D and SIRROUND-T studies, sets of serum samples from demographically-matched healthy controls were obtained from commercial sources (BioIVT, Westbury, N.Y.).\n(§2) Serum samples from baseline (week 0) and the time points indicated in Table 1 were provided for quantification of 1189 serum analytes using the SomaScan v3.1 platform (SomaLogic, Boulder, Colo.; www.somalogic.com), with the exception of RA-MAP TACERA, for which plasma samples were analyzed for 1301 analytes using the SomaScan v3.2 platform. For some studies, a redacted dataset reporting data for a subset of the analytes was obtained. Relative fluorescence unit (RFU) data were sequentially normalized for hybridization controls (internal standards per samples), median signal across all samples (assumes same total protein concentration across sample set), and calibration controls (common sample standards across analysis plates). Samples failed quality control standards defined by Somalogic were excluded from analyses. The normalized RFU values were log2-transformed for subsequent analyses.\n(§3) Changes in analyte expression levels were calculated for individual samples as the log2 transform of the ratio of the analyte level at the indicated time point (visit level) over the analyte level at baseline (baseline level) for a given subject, i.e., log 2(visit level/baseline level). Changes in RA disease-associated analytes per sample were summarized using a pharmacodynamic (PD) molecular disease profile (M-DP) score, defined as the median value of the log 2(visit level/baseline level) values for analytes in the defined M-DP analyte set. […] PD M-DP scores in the log 2(visit level/baseline level) scale can be transformed to percent change from baseline, using the transformation: (2^M-DP score−1)×100%.\nStatistical analyses were performed on log2-transformed data, for either normalized Relative fluorescence unit (RFU) datasets or within-subject fold/baseline datasets. Significance of differences between groups was evaluated using General Linear Models, with t-tests when comparing two groups. […]"}, "[2]": {"system": "4-analyte M-DP panel (CRP, CXCL10, CXCL13, SAA)", "assay": "Pharmacodynamic M-DP score, 4-analyte panel CRP, CXCL10, CXCL13, SAA (SOMAscan), clinical studies in RA", "assay_type": "in vivo, human", "conditions": "for M-DP score mean ± SD, All treated / M-DP score mean difference ± SD, Good vs. No / M-DP score mean ± SD, DAS28-CRP response group Good / M-DP score mean ± SD, DAS28-CRP response group Moderate / M-DP score mean ± SD, DAS28-CRP response group No: 4-analyte", "excerpt": "as §1, §2, §3\nIn selecting the best minimal set of analytes that performs similarly to the full 14-analyte set, analyte sets that results in significant associations between DAS28-CRP EULAR good vs. no response with p<0.05 for each study were prioritized (Table 4). […]"}, "[3]": {"system": "RA patients", "conditions": "RA patients; cited from earlier work"}, "[4]": {"conditions": "GO-FURTHER, score at week 14, golimumab IV 2 mg/kg weeks 0, 4, then q8w plus methotrexate"}, "[5]": {"conditions": "GO-FURTHER, score at week 14, golimumab IV 2 mg/kg, response at week 24"}, "[6]": {"conditions": "40346527ARA2001, score at week 4, oral 100 mg BID"}, "[7]": {"conditions": "40346527ARA2001, score at week 4, oral 100 mg BID, response at week 12"}, "[8]": {"conditions": "40346527ARA2001, score at week 12, oral 100 mg BID"}, "[9]": {"conditions": "40346527ARA2001, score at week 12, oral 100 mg BID, response at week 12"}}, "data": [{"compound": "golimumab [reference compound]", "values": [{"measurement": "M-DP score decrease", "setting": "[1]; GO-FURTHER, 14-weeks treatment, golimumab IV", "value": 26, "unit": "%"}, {"measurement": "M-DP score mean ± SD, All treated", "setting": "[1]; [4]", "value": "−0.44 ± 0.37 log2 (fold/baseline)"}, {"measurement": "M-DP score mean difference ± SD, Good vs. No", "setting": "[1]; [5]", "value": "−0.35 ± 0.35 log2 (fold/baseline)"}, {"measurement": "M-DP score mean ± SD, DAS28-CRP response group Good", "setting": "[1]; [5]", "value": "−0.56 ± 0.39 log2 (fold/baseline)"}, {"measurement": "M-DP score mean ± SD, DAS28-CRP response group Moderate", "setting": "[1]; [5]", "value": "−0.45 ± 0.34 log2 (fold/baseline)"}, {"measurement": "M-DP score mean ± SD, DAS28-CRP response group No", "setting": "[1]; [5]", "value": "−0.21 ± 0.27 [22] * log2 (fold/baseline)"}, {"measurement": "M-DP score mean ± SD, All treated", "setting": "[2]; [4]", "value": "−0.94 ± 0.63 log2 (fold/baseline)"}, {"measurement": "M-DP score mean difference ± SD, Good vs. No", "setting": "[2]; [5]", "value": "−0.56 ± 0.55 (0.0003) log2 (fold/baseline)"}, {"measurement": "M-DP score mean ± SD, DAS28-CRP response group Good", "setting": "[2]; [5]", "value": "−1.13 ± 0.61 log2 (fold/baseline)"}, {"measurement": "M-DP score mean ± SD, DAS28-CRP response group Moderate", "setting": "[2]; [5]", "value": "−0.94 ± 0.68 log2 (fold/baseline)"}, {"measurement": "M-DP score mean ± SD, DAS28-CRP response group No", "setting": "[2]; [5]", "value": "−0.57 ± 0.43 log2 (fold/baseline)"}, {"measurement": "M-DP score decrease, good response subgroup", "setting": "[2]; golimumab treatment data", "value": 54, "unit": "%"}, {"measurement": "M-DP score decrease, no response subgroup", "setting": "[2]; golimumab treatment data", "value": 33, "unit": "%"}, {"measurement": "clinical efficacy in the underlying clinical studies", "setting": "[3]", "value": "clinically efficacious"}]}, {"compound": "CC1(C)CC=C(c2nc(C3CC(C)(C)OC(C)(C)C3)ccc2NC(=O)c2nc(C#N)c[nH]2)CC1", "note": "[JNJ-40346527, reference compound]", "values": [{"measurement": "M-DP score mean ± SD, All treated", "setting": "[1]; [6]", "value": "−0.08 ± 0.27 log2 (fold/baseline)"}, {"measurement": "M-DP score mean difference ± SD, Good vs. No", "setting": "[1]; [7]", "value": "0.08 ± 0.52 log2 (fold/baseline)"}, {"measurement": "M-DP score mean ± SD, DAS28-CRP response group Good", "setting": "[1]; [7]", "value": "0.29 ± 0.42 log2 (fold/baseline)"}, {"measurement": "M-DP score mean ± SD, DAS28-CRP response group Moderate", "setting": "[1]; [7]", "value": "−0.05 ± 0.48 log2 (fold/baseline)"}, {"measurement": "M-DP score mean ± SD, DAS28-CRP response group No", "setting": "[1]; [7]", "value": "−0.09 ± 0.54 [23] log2 (fold/baseline)"}, {"measurement": "M-DP score mean ± SD, All treated", "setting": "[1]; [8]", "value": "−0.13 ± 0.33 log2 (fold/baseline)"}, {"measurement": "M-DP score mean ± SD, DAS28-CRP response group Good", "setting": "[1]; [9]", "value": "−0.50 ± 0.61 log2 (fold/baseline)"}, {"measurement": "M-DP score mean ± SD, DAS28-CRP response group Moderate", "setting": "[1]; [9]", "value": "−0.07 ± 0.55 log2 (fold/baseline)"}, {"measurement": "M-DP score mean ± SD, DAS28-CRP response group No", "setting": "[1]; [9]", "value": "0.18 ± 0.50 [22] log2 (fold/baseline)"}, {"measurement": "GMean M-DP scores, change", "setting": "[1]; week 4 or latest time point evaluated (weeks 28, 28, and 12, respectively)", "value": "not decreased"}, {"measurement": "M-DP score mean ± SD, All treated", "setting": "[2]; [6]", "value": "−0.03 ± 0.49 log2 (fold/baseline)"}, {"measurement": "M-DP score mean difference ± SD, Good vs. No", "setting": "[2]; [7]", "value": "0.34 ± 0.52 (0.1581) log2 (fold/baseline)"}, {"measurement": "M-DP score mean ± SD, DAS28-CRP response group Good", "setting": "[2]; [7]", "value": "−0.29 ± 0.42 log2 (fold/baseline)"}, {"measurement": "M-DP score mean ± SD, DAS28-CRP response group Moderate", "setting": "[2]; [7]", "value": "−0.05 ± 0.48 log2 (fold/baseline)"}, {"measurement": "M-DP score mean ± SD, DAS28-CRP response group No", "setting": "[2]; [7]", "value": "−0.09 ± 0.54 log2 (fold/baseline)"}, {"measurement": "M-DP score mean ± SD, All treated", "setting": "[2]; [8]", "value": "−0.01 ± 0.56 log2 (fold/baseline)"}, {"measurement": "M-DP score mean difference ± SD, Good vs. No", "setting": "[2]; [9]", "value": "−0.68 ± 0.52 (0.0079) log2 (fold/baseline)"}, {"measurement": "M-DP score mean ± SD, DAS28-CRP response group Good", "setting": "[2]; [9]", "value": "−0.50 ± 0.61 log2 (fold/baseline)"}, {"measurement": "M-DP score mean ± SD, DAS28-CRP response group Moderate", "setting": "[2]; [9]", "value": "−0.07 ± 0.55 log2 (fold/baseline)"}, {"measurement": "M-DP score mean ± SD, DAS28-CRP response group No", "setting": "[2]; [9]", "value": "0.18 ± 0.50 log2 (fold/baseline)"}, {"measurement": "clinical efficacy in the underlying clinical studies", "setting": "[3]", "value": "not clinically efficacious"}]}]}
